# Tests used:
# Rev-Erb alpha = biological target: T1, Rev-Erb alpha (Homo sapiens, UniProt P20393); assay: M2H (mammalian two-hybrid) cellular activation assay of Rev-Erb alpha; assay type: cell-based; conditions: M2H assay, HEK293 cells, Gal4-Rev-Erb alpha / VP16-NCoR, luciferase reporter
# T1 sequence (P20393 284-614 limits assumed): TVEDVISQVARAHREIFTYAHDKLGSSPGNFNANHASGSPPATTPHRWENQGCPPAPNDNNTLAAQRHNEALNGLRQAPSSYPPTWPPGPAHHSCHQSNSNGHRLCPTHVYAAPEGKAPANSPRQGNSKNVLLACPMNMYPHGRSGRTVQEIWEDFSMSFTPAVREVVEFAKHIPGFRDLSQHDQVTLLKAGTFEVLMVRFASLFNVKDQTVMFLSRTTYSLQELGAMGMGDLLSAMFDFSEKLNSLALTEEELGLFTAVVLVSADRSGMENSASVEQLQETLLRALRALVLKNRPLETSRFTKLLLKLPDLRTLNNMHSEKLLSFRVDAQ
# Summary of the method: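 Six-point dose-response, 18 h, 37 °C, serum-free, in HEK293 cells carrying a Gal4-RE luciferase reporter with Gal4-Rev-Erb alpha or beta plus VP16-NCoR (corepressor interaction readout). EC50 and TOP activation (%) derived from luminescence across four experiments.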
melting point [°C],EC50 (Rev-Erb alpha) [nM],SMILES
212 to 214,1000 to 6000,"Cc1ccc(-c2ccc(C(F)(F)F)cc2Oc2ccc3nnc(Cl)n3n2)cn1 [Cpd.4-196, 3-chloro-6-(2-(6-methylpyridin-3-yl)-5-(trifluoromethyl)phenoxy)-[1,2,4]triazolo[4,3-b]pyridazine]"
213 to 215,100 to 1000,"Fc1ccc2c(c1)c(Oc1cc(C(F)(F)F)ccc1-c1ccccc1)nn1c(Cl)nnc21 [Cpd.5-3, 3-chloro-6-(4-trifluoromethyl-biphenyl-2-yloxy)-8-fluoro-[1,2,4]triazolo[3,4-a]phthalazine]"
190 to 192,100 to 1000,"FC(F)(F)c1ccc(-c2ccccc2)c(Oc2nn3c(Cl)nnc3cc2-c2ccccc2)c1 [Cpd.5-5, 3-chloro-7-phenyl-6-(4-trifluoromethyl-biphenyl-2-yloxy)-[1,2,4]triazolo[4,3-b]pyridazine]"
169 to 172,< 100,"Cc1cc(Oc2cc(C(F)(F)F)ccc2-c2ccccc2)nn2c(Cl)nnc12 [Cpd.5-6, 3-chloro-8-methyl-6-(4-trifluoromethyl-biphenyl-2-yloxy)-[1,2,4]triazolo[4,3-b]pyridazine]"
163 to 165,100 to 1000,"Cc1cc2nnc(Cl)n2nc1Oc1cc(C(F)(F)F)ccc1-c1ccccc1 [Cpd.5-7, 3-chloro-7-methyl-6-(4-trifluoromethyl-biphenyl-2-yloxy)-[1,2,4]triazolo[4,3-b]pyridazine]"
229 to 231,100 to 1000,"Cc1ccc2c(Oc3cc(C(F)(F)F)ccc3-c3ccccc3)nn3c(Cl)nnc3c2c1 [Cpd.5-9, 3-chloro-6-(4-trifluoromethyl-biphenyl-2-yloxy)-9-methyl-[1,2,4]triazolo[3,4-a]phthalazine]"
195 to 197,100 to 1000,"Cc1ccc2c(c1)c(Oc1cc(C(F)(F)F)ccc1-c1ccccc1)nn1c(Cl)nnc21 [Cpd.5-10, 3-chloro-6-(4-trifluoromethyl-biphenyl-2-yloxy)-8-methyl-[1,2,4]triazolo[3,4-a]phthalazine]"
55 to 58,100 to 1000,"CC(C)c1cc2nnc(Cl)n2nc1Oc1cc(C(F)(F)F)ccc1-c1ccccc1 [Cpd.5-11, 3-chloro-7-isopropyl-6-(4-trifluoromethyl-biphenyl-2-yloxy)-[1,2,4]triazolo[4,3-b]pyridazine]"
139.5 to 141.8,100 to 1000,"CCc1cc(Oc2cc(C(F)(F)F)ccc2-c2ccccc2)nn2c(Cl)nnc12 [Cpd.5-13, 3-chloro-8-ethyl-6-(4-trifluoromethyl-biphenyl-2-yloxy)-[1,2,4]triazolo[4,3-b]pyridazine]"
175 to 177,< 100,"FC(F)(F)c1ccc(-c2cccnc2)c(Oc2nn3c(Cl)nnc3c3ccccc23)c1 [Cpd.5-15, 3-chloro-6-(2-(pyridin-3-yl)-5-(trifluoromethyl)phenoxy)-[1,2,4]triazolo[3,4-a]phthalazine]"
156 to 158,1000 to 6000,"COc1ncccc1-c1ccc(C(F)(F)F)cc1Oc1cc(C)c2nnc(Cl)n2n1 [Cpd.5-23, 3-chloro-6-(2-(2-methoxypyridin-3-yl)-5-(trifluoromethyl)phenoxy)-8-methyl-[1,2,4]triazolo[4,3-b]pyridazine]"
176 to 178,1000 to 6000,"COc1ncccc1-c1ccc(C(F)(F)F)cc1Oc1nn2c(Cl)nnc2cc1C [Cpd.5-24, 3-chloro-7-methyl-6-((2-(2-methoxypyridin-3-yl))-5-(trifluoromethyl)phenoxy)-[1,2,4]triazolo[4,3-b]pyridazine]"
194 to 196,1000 to 6000,"COc1ncc(C(F)(F)F)cc1-c1ccc(C(F)(F)F)cc1Oc1nn2c(Cl)nnc2cc1C [Cpd.5-26, 3-chloro-7-methyl-6-((2-(2-methoxy-5-(trifluoromethyl)pyridin-3-yl))-5-(trifluoromethyl)phenoxy)-[1,2,4]triazolo[4,3-b]pyridazine]"

# Reference: patent publication US9586963B2 (GENFIT, priority 2011, dated 2017)
